Source: patent publication EP4501942A1, “PEPTIDOMIMETICS WITH ANTIVIRAL ACTIVITY” (priority 2023, dated 2025)
Read-outs that look alike come from different tables or passages of the source.

Key:
SARS-CoV-2 M^pro protein = SARS-CoV-2 M^pro protein (Severe acute respiratory syndrome coronavirus 2, UniProt P0DTD1); assay: biochemical; details: for IC50: three separate experiments in duplicate, read-out: IC50, mean±SD; for inhibition at 10 µM: read-out: % of inhibition at 10 µM
SARS-CoV-2 = assay: microbe, parasite or virus in culture; assay type: cell-based
[1] = Cytotoxicity MTT assay in uninfected A549-ACE2 cells; assay type: cell-based; details: human
Protocol: To evaluate the cytotoxicity profile of the compounds MTT assays were performed in A549-ACE2 cells. Uninfected cells were incubated with a range of compound concentrations (from 100 to 1 µM) for forty-eight hours, time at which the MTT substrate [3-(4,5-dimethylthiazol-2-yl)-2,5-diphenyltetrazolium bromide] was added and the formation of formazan precipitates was evaluated two hours later, using a colorimetric readout. Vehicle-treated (DMSO) cells were used as reference (100 %).

[2] = Severe acute respiratory syndrome coronavirus 2, SARS-CoV-2, A549-ACE2 cells, MOI 0.005, 48 h, read-out: EC50
[3] = Severe acute respiratory syndrome coronavirus 2, SARS-CoV-2, A549-ACE2 cells, MOI 0.005, 48 h, read-out: EC90
[4] = Severe acute respiratory syndrome coronavirus 2, A549-ACE2, 48 h
[5] = isolated SARS-CoV-2 M^pro, compound at 10 µM

| SMILES | EC50 (SARS-CoV-2; [2]) [µM] | EC90 (SARS-CoV-2; [3]) [µM] | CC50 at 48 h [1] [µM] | also measured |
| --- | --- | --- | --- | --- |
| C[C@@H]1CN(C(=O)[C@H](CCCCN)NC(=O)OCc2ccccc2)[C@]1(Cc1ccccc1)C(=O)N[C@H](C#N)C[C@@H]1CCNC1=O [Example 21] |  |  |  | IC50 (SARS-CoV-2 M^pro protein; isolated SARS-CoV-2 M^pro): 3.66 µM |
| C[C@@H]1CN(C(=O)[C@@H](NC(=O)C(F)(F)F)C(C)(C)C)[C@]1(Cc1ccccc1)C(=O)N[C@H](C#N)C[C@@H]1CCNC1=O [Example 15] | 2 | 13 | > 100 |  |
| CC(C)C[C@@]1(C(=O)N[C@H](C#N)C[C@@H]2CCNC2=O)[C@H](C)CN1C(=O)[C@@H](NC(=O)OCC(F)F)C(C)(C)C [Example 33] | 16 | > 25 | > 100 | IC50 (SARS-CoV-2 M^pro protein; isolated SARS-CoV-2 M^pro): 5.94 ± 0.69 µM |
| CC(C)(C)[C@H](NC(=O)C(F)(F)F)C(=O)N1C[C@H]2[C@@H]([C@H]1C(=O)N[C@H](C#N)C[C@@H]1CCNC1=O)C2(C)C [PF-07321332, nirmatrelvir, reference compound] |  |  | 100 | EC50 (SARS-CoV-2; [4]): < 0.2 µM; EC90 (SARS-CoV-2; [4]): < 0.2 µM |
| C[C@@H]1CN(C(=O)[C@@H](NC(=O)OC(C)(C)C)C(C)(C)C)[C@]1(Cc1ccccc1)C(=O)N[C@H](/C=C/C(=O)OCc1ccccc1)C[C@@H]1CCNC1=O [Example 32] |  |  |  | inhibition at 10 µM (SARS-CoV-2 M^pro protein): 40% |
| CC(C)C[C@]1(C(=O)N[C@H](C#N)C[C@@H]2CCNC2=O)[C@@H](C)CN1C(=O)[C@@H](NC(=O)OCc1ccccc1)C(C)C [Example 2] |  |  |  | inhibition at 10 µM (SARS-CoV-2 M^pro protein; [5]): 0% |
| C[C@@H]1CN(C(=O)[C@@H](NC(=O)OCC(F)F)C(C)(C)C)[C@]1(Cc1ccccc1)C(=O)N[C@H](C#N)C[C@@H]1CCNC1=O [Example 18] | 4 | 7 | > 100 |  |
| CC(C)C[C@]1(C(=O)N[C@H](C#N)C[C@@H]2CCNC2=O)[C@@H](C)CN1C(=O)[C@@H](NC(=O)C(F)(F)F)C(C)C [Example 4] |  |  |  | inhibition at 10 µM (SARS-CoV-2 M^pro protein; [5]): 0% |
| CC(C)[C@H](NC(=O)OCc1ccccc1)C(=O)N1C[C@@H](C)[C@@]1(Cc1ccc(OC(C)(C)C)cc1)C(=O)N[C@H](C#N)C[C@@H]1CCNC1=O [Example 10] |  |  |  | inhibition at 10 µM (SARS-CoV-2 M^pro protein): 9% |
| C[C@@H]1CN(C(=O)[C@@H](NC(=O)OCc2ccccc2)C(C)(C)C)[C@]1(Cc1ccccc1)C(=O)N[C@H](C#N)C[C@@H]1CCNC1=O [Example 13] | 4 | 15 | > 100 |  |
| C[C@@H]1CN(C(=O)[C@@H](NC(=O)OC(C)(C)C)C(C)(C)C)[C@]1(CC1CCCCC1)C(=O)N[C@H](C#N)C[C@@H]1CCNC1=O [Example 35] | 3 | 20 | > 100 |  |
| C[C@@H]1CN(C(=O)[C@@H](NC(=O)OCC(F)F)C(C)(C)C)[C@]1(CC1CCCCC1)C(=O)N[C@H](C#N)C[C@@H]1CCNC1=O [Example 37] | 4 | 22 | > 100 |  |
| CC(C)[C@@H](CC(=O)N1C[C@@H](C)[C@@]1(Cc1ccccc1)C(=O)N[C@H](C#N)C[C@@H]1CCNC1=O)NC(=O)OC(C)(C)C [Example 26] |  |  |  | inhibition at 10 µM (SARS-CoV-2 M^pro protein): 28% |
| CC(C)[C@H](NC(=O)OCc1ccccc1)C(=O)N1C[C@@H](C)[C@@]1(Cc1ccc(O)cc1)C(=O)N[C@H](C#N)C[C@@H]1CCNC1=O [Example 9] |  |  |  | IC50 (SARS-CoV-2 M^pro protein; isolated SARS-CoV-2 M^pro): 6.43 ± 0.53 µM |
| C[C@@H]1CN(C(=O)[C@@H](NC(=O)OCc2ccccc2)C(C)(C)C)[C@]1(CCCCN)C(=O)N[C@H](C#N)C[C@@H]1CCNC1=O [Example 23] |  |  |  | inhibition at 10 µM (SARS-CoV-2 M^pro protein): 0% |
| C[C@@H]1CN(C(=O)[C@@H](NC(=O)OCc2ccccc2)C(C)(C)C)[C@]1(CCCCNC(=O)OC(C)(C)C)C(=O)N[C@H](C#N)C[C@@H]1CCNC1=O [Example 22] |  |  |  | inhibition at 10 µM (SARS-CoV-2 M^pro protein): 16% |
| C[C@@H]1CN(C(=O)[C@H](CCCCNC(=O)OC(C)(C)C)NC(=O)OCc2ccccc2)[C@]1(Cc1ccccc1)C(=O)N[C@H](C#N)C[C@@H]1CCNC1=O [Example 20] | 7 | 18 | 100 |  |
| CC(C)[C@H](NC(=O)OCC(F)F)C(=O)N1C[C@@H](C)[C@@]1(Cc1ccccc1)C(=O)N[C@H](C#N)C[C@@H]1CCNC1=O [Example 39] | 0.4 | 2 | > 50 |  |
